Test results reported in ChEMBL document CHEMBL5260836, “Combating Autoimmune Diseases With Retinoic Acid Receptor-Related Orphan Receptor-γ (RORγ or RORc) Inhibitors: Hits and Misses” (J Med Chem, 2018).

Columns and labels:
cells [1] = settings: Homo sapiens, PBMC
Description: Inhibition of IL-17A secretion in human PBMC cells

Mus musculus = experiment: Anti-arthritis activity against glucose-6-phosphate isomerase-induced arthritis DBA/1 mouse model assessed as reduction in paw swelling clinical score at 1000 mg/kg, po; type: functional
[2] = Inhibition of IL-17F production in human PBMC by ELISA; type: functional, cell-based
[3] = Inhibition of IL-17A production in human PBMC by ELISA; type: functional, cell-based
[4] = Inhibition of IL-21 production in human PBMC by ELISA; type: functional, cell-based
[5] = Inhibition of IL-22 production in human PBMC by ELISA; type: functional, cell-based
cells [6] = settings: Homo sapiens, PBMC; remark: listed apart in the source
[7] = target: T1, Nuclear receptor ROR-gamma (Homo sapiens, UniProt P51449); experiment: Inhibition of human RORgammat expressed in COS7 cells by luciferase assay; type: cell-based
T1 sequence (P51449 whole entry): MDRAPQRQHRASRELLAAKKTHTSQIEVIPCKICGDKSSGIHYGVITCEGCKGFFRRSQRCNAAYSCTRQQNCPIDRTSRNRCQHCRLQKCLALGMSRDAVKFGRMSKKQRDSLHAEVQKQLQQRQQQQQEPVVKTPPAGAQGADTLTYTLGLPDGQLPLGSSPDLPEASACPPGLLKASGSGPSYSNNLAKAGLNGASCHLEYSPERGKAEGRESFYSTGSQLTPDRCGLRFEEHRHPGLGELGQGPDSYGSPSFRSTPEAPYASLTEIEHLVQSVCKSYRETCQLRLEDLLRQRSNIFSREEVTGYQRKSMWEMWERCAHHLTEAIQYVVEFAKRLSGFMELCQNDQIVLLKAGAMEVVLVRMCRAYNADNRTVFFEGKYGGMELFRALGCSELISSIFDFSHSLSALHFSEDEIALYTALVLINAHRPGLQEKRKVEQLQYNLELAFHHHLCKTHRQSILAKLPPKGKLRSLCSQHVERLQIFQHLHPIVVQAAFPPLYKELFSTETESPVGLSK

[8] = target: T1, Nuclear receptor ROR-gamma; experiment: Inhibition of RORgammat LBD (unknown origin) expressed in Sf21 cells assessed as fluorescence signal by TR-FRET assay
[9] = Inhibition of IL-17 production in human BAL cells isolated from COPD patients measured after 72 hrs by ELISA based assay; type: functional; settings: Bronchoalveolar lavage cell
[10] = Inhibition of IL-17 production in human PBMC isolated from COPD patients measured after 72 hrs by ELISA based assay; type: functional, cell-based
[11] = Plasma clearance in rat; type: ADME
[12] = target: T1, Nuclear receptor ROR-gamma; experiment: Inverse agonist activity at human GAL4-RORgamma […] expressed in HEK293 cells measured after 24 hrs by ligand binding assay; type: cell-based
cells [13] = settings: Homo sapiens, Th17
[14] = Oral bioavailability in rat; type: ADME, organism-based; settings: in vivo
[15] = Unbound fraction in rat blood; type: ADME, tissue-based
Homo sapiens = species on record: Homo sapiens; experiment: Inhibition of IL-17 production in human whole blood measured after 72 hrs by ELISA; type: functional
[16] = target: T1, Nuclear receptor ROR-gamma; experiment: Inverse agonist activity at His-tagged human RORgammat LBD assessed as inhibition of biotinylated RIP140 co-activator peptide binding incubated for 1 hr by TR-FRET assay
[17] = Unbound fraction in human blood; type: ADME, tissue-based
[18] = Inhibition of IL-17 production in human Th17 cells relative to control; type: functional
[19] = target: T2, Nuclear receptor ROR-gamma (Homo sapiens) (UniProt P51449); experiment: Inhibition of human RORgamma by TR-FRET assay relative to control
T2 sequence (whole entry): T1 sequence (P51449 whole entry)

[20] = target: T1, Nuclear receptor ROR-gamma; experiment: Inhibition of human GAL4-fused RORgammat LBD transfected in Escherichia coli BL21(DE3) cell measured after 16 hrs by HTRF assay
[21] = target: T1, Nuclear receptor ROR-gamma; experiment: Inhibition of human GAL4-fused RORgamma LBD transfected in HEK293T cell measured after 24 hrs by luciferase reporter assay; type: cell-based
[22] = Suppression of Th17 polarization in human CD4+ T cells cultured under Th17-skewing conditions measured after 4 days
[23] = target: T1, Nuclear receptor ROR-gamma; experiment: Antagonist activity at RORgammat LBD (unknown origin) assessed as fluorescent polarization signal measured in presence of fluorescein-labeled LXR agonist T0901317 after 4 hrs by competitive binding assay

CCS(=O)(=O)c1ccc(CNC(=O)c2cc3c(s2)C2(CCN([C@H](C)c4cnc(C(F)(F)F)nc4)CC2)O[C@@H](C)C3)nc1
IC50 (cells [1]): 20 nM | inhibition in vivo at 1000 mg/kg (Mus musculus): 75%

O=S(=O)(c1ccccc1)N1CCC(Cn2ccc3nc(-c4cn[nH]c4)ccc32)CC1
IC50 [2]: < 10000 nM | IC50 [3]: < 10000 nM | IC50 [4]: < 10000 nM | IC50 [5]: < 10000 nM

O=S(=O)(c1ccccc1)N1CCC(Cn2ncc3cc(-c4cn[nH]c4)ccc32)CC1
IC50 [2]: < 10000 nM | IC50 [3]: < 10000 nM | IC50 [4]: < 10000 nM | IC50 [5]: < 10000 nM

CCS(=O)(=O)c1ccc(CC(=O)Nc2cc(Cl)c(C3(c4noc(-c5ccc(F)cc5)n4)CC3)c(Cl)c2)cc1
IC50 (cells [6]): 6.6 nM | IC50 [7]: 2.1 nM

COc1cc2c(cc1N1CCOCC1)CC(Cc1cccc(C(F)(F)F)c1)C2=O (stereo not given)
IC50 [8]: < 500 nM

CCn1c(C(C)(C)Oc2ccc(F)cc2F)nc2cc(NC(=O)Cc3ccc(S(=O)(=O)CC)cc3)ccc21
IC50 [9]: 350 nM | IC50 [10]: 147 nM

O=C(O)c1ccc(-c2nn(C(=O)c3c(Cl)cccc3C3(C(F)(F)F)CC3)c3cccnc23)c(F)c1
clearance [11]: 5 mL/min/kg

CCOC(=O)CC1CN(Cc2ccc(-c3ccc(C(O)(C(F)(F)F)C(F)(F)F)cc3)cc2)CCN1Cc1ccncc1 (stereo not given)
IC50 [12]: < 1000 nM

O=S(=O)(c1ccc(Cl)cc1)N1CCC(Cn2ccc3cc(-c4cn[nH]c4)ccc32)CC1
IC50 [2]: < 10000 nM | IC50 [3]: < 10000 nM | IC50 [4]: < 10000 nM | IC50 [5]: < 10000 nM

O=C(Nc1ccc2c(c1)CN(S(=O)(=O)c1cccc(C(F)(F)F)c1)CCC2)c1c(F)cccc1Cl
IC50 (cells [13]): 40 nM

Cc1ncc(C(=O)Nc2cn3ccnc3c(CN3CCN(C(=O)C4CCCC4)[C@@H](C)C3)c2C)cn1
bioavailability [14]: 23% | fraction unbound [15]: 0.256 | IC50 (Homo sapiens): 168 nM | IC50 [16]: 13 nM | fraction unbound [17]: 0.312

O=C(Nc1ccc2c(c1)CN(S(=O)(=O)c1cccc(C(F)(F)F)c1)CCO2)c1c(F)cccc1Cl
IC50 (cells [13]): 180 nM | Efficacy [18]: -73% | Efficacy [19]: -69%

O=C(O)c1ccc(-c2nn(C(=O)c3c(Cl)cccc3C(F)(F)F)c3cccnc23)c(F)c1
IC50 [20]: 2 nM

COc1c(NC(=O)c2cccc(C#N)c2)cnc2c1c(C1CCN(C(=O)C3CCCC3)CC1)cn2C
IC50 (cells [13]): 29.8 nM

COC(=O)[C@]12CCC(C)(C)CC1C1C(=O)C=C3[C@@]4(C)C=C(C#N)C(=O)[C@@](C)(O)[C@@H]4CC[C@@]3(C)[C@]1(C)CC2 (stereo not given in full)
IC50 [21]: 115 nM | IC50 [22]: 18 nM

C[C@H]1CN(Cc2cncc(NS(=O)(=O)c3c(Cl)cc(Cl)cc3Cl)c2)CCN1C(=O)C1CCCC1
IC50 [23]: 89 nM
